Reference: patent US20170007709A1, “GLYCOAMINO ACID AND USE THEREOF” (AJINOMOTO CO., INC., priority 2014, published 2017)

Assays:
[1] = Solubility evaluation in water at 25° C.; format: physicochemical; conditions: for solubility, amino acid-converted weight concentration / solubility, weight concentration: water, stirred for 2 days
Protocol: The concentration was measured by HPLC. […] Similarly, the solubility of DOPA and DOPA-Glc was measured. […] Furthermore, the solubility of DOPA and DOPA-Glc was similarly measured using water (0.5 ml) in a thermostatic tank at 25° C. […] Therefore, the samples were diluted, and solubility was measured by HPLC.

[2] = Dissolution rate evaluation in water; format: physicochemical; conditions: 25 ml stirring water, inside temperature 32° C., n=1
Protocol: Val, Ile, Leu or glycoamino acid corresponding thereto (Val-Glc, Ile-Glc, Leu-Glc) were each added to stirring water (25 ml, inside temperature 32° C.) in a hot-water bath at 35° C., and the dissolution rate was measured. As compared to Val, Ile and Leu, Val-Glc, Ile-Glc and Leu-Glc were dissolved 4-19 times faster in equal weight and 2-19 times faster in equimolar amount.

[3] = Animal evaluation: blood amino acid concentration after oral administration; format: in vivo; conditions: male SD rats fasted overnight
Protocol: Leu, Val, Ile and glycoamino acid corresponding thereto (Leu-Glc, Val-Glc, Ile-Glc) were each dissolved or suspended in distilled water to a given dose and orally administered to male 13-week-old SD rats (Japan Charles River) that was fasted overnight. Blood samples were collected from the rat tail vein before administration and 15 min, 30 min, 60 min, 90 min, 120 min after administration and partly 180 min and 300 min after administration. After separation into plasma, protein elimination and ultrafiltration with 15% sulfosalicylic acid solution was performed. The filtrate was mixed with 0.02 mmol/L hydrochloric acid at 1:1, analyzed by an amino acid analyzer (JEOL Ltd.), and blood amino acid concentration was determined.

pronase = test: Enzyme evaluation: liberation of leucine by pronase; format: in vitro ADME; conditions: 37° C., 30 min later
Protocol: Leu-Glc (10 mg) was dissolved in water (1 ml), pronase (0.1% aqueous solution, 100 μl) was added, and the mixture was stirred in a hot-water bath at 37° C. The mixture was diluted 10-fold with 1% aqueous phosphoric acid solution, and analyzed by HPLC.
HPLC analysis conditions were as described below.
column: […] MG (4.6×250 mm, 5 μm) column temperature: 40° C. mobile phase: A: 100 mM KH2PO4, 5 mM sodium 1-octanesulfonate (pH 2.2) B: acetonitrile eluent: A/B=9/1 isocratic flow rate: 1.5 ml/min detection: photodiode array detector measurement wavelength 210 nm injection volume: 10 μL

| SMILES | solubility, amino acid-converted weight concentration ([1]; HPLC) [g/100 g water] | solubility, weight concentration ([1]; HPLC) [g/100 g water] | dissolution rate, amino acid (XXX) ([2]; equal weight (Table 3)) | dissolution rate, amino acid (XXX) ([2]; equimolar quantity (Table 2)) | dissolution rate, glycoamino acid (XXX-Glc) ([2]; equal weight (Table 3)) [s] | dissolution rate, glycoamino acid (XXX-Glc) ([2]; equimolar quantity (Table 2)) [s] | other results |
| --- | --- | --- | --- | --- | --- | --- | --- |
| CC[C@H](C)[C@H](N)C(=O)N[C@@H]1O[C@H](CO)[C@@H](O)[C@H](O)[C@H]1O [Ile-Glc, N-(L-isoleucyl)-β-D-glucopyranosylamine] | 14.7 | 32.8 |  |  | 15 | 15 | blood Ile concentration [3]: increased |
| N[C@@H](Cc1ccc(O)c(O)c1)C(=O)N[C@@H]1O[C@H](CO)[C@@H](O)[C@H](O)[C@H]1O [DOPA-Glc, N-(3,4-dihydroxy-L-phenylalanyl)-β-D-glucopyranosylamine] | >215 | >392 |  |  |  |  | solubility as compared to that of DOPA ([1]; water 0.5 ml, samples diluted, HPLC): not less than 690 fold; solubility as compared to the corresponding amino acid ([1]; water 1 ml): not less than 135 times; weight concentration at which still dissolved ([1]; water 1 ml): ≥ 93.8 g/100 g water |
| CC(C)C[C@H](N)C(=O)N[C@@H]1O[C@H](CO)[C@@H](O)[C@H](O)[C@H]1O [Leu-Glc, N-(L-leucyl)-β-D-glucopyranosylamine] | 28.3 | 63 |  |  | 21 | 21 | remaining Leu-Glc (pronase): almost disappeared; blood Leu concentration [3]: increased |
| N[C@@H](Cc1ccc(O)cc1)C(=O)N[C@@H]1O[C@H](CO)[C@@H](O)[C@H](O)[C@H]1O [Tyr-Glc, N-(L-tyrosyl)-β-D-glucopyranosylamine] | 8.92 | 16.8 |  |  |  |  | solubility as compared to the corresponding amino acid ([1]; water 1 ml): 178 times |
| N[C@@H](Cc1ccc(O)c(O)c1)C(=O)O [DOPA, 3,4-dihydroxy-L-phenylalanine, reference compound] | 0.31 | 0.31 |  |  |  |  |  |

The next lines start with results.

| solubility, amino acid-converted weight concentration ([1]; HPLC) [g/100 g water] | solubility, weight concentration ([1]; HPLC) [g/100 g water] | dissolution rate, amino acid (XXX) ([2]; equal weight (Table 3)) | dissolution rate, amino acid (XXX) ([2]; equimolar quantity (Table 2)) | dissolution rate, glycoamino acid (XXX-Glc) ([2]; equal weight (Table 3)) [s] | dissolution rate, glycoamino acid (XXX-Glc) ([2]; equimolar quantity (Table 2)) [s] | SMILES | other results |
| --- | --- | --- | --- | --- | --- | --- | --- |
| 4.1 | 4.1 | (285 sec) | (280 sec) |  |  | CC[C@H](C)[C@H](N)C(=O)O [Ile, L-isoleucine, reference compound] |  |
| 14.1 | 33.5 |  |  | 33 | 33 | CC(C)[C@H](N)C(=O)N[C@@H]1O[C@H](CO)[C@@H](O)[C@H](O)[C@H]1O [Val-Glc, N-(L-valyl)-β-D-glucopyranosylamine] | blood Val concentration [3]: increased |
| 2.4 | 2.4 | (330 sec) | (191 sec) |  |  | CC(C)C[C@H](N)C(=O)O [Leu, L-leucine, reference compound] |  |
| 5.8 | 5.8 | (139 sec) | (80 sec) |  |  | CC(C)[C@H](N)C(=O)O [Val, L-valine, reference compound] |  |
